From US4110438A, “Method of treating depression” (American Home Products Corporation, priority 1977, dated 1978)

What was measured:
[1] = tested on: patients suffering from depression caused by stress or emotional exhaustion; assay: clinical investigation of LH-RH in patients suffering from depression; type: in vivo, human
Experimental: Twenty-one patients, suffering from depression caused by stress or emotional exhaustion, were selected for the investigation. Fifteen were female adults, five were male adults and one patient was a young person […]. The latter patient suffered from existential depression and cryptorchidism. Each patient received 300 mcg of LH-RH in a single or divided dose once a month. In this instance the LH-RH was in the form of its hydrochloride acid addition salt and was prepared according to the syntheses reported by Immer et al., noted above. […] Relief from depression usually was observed within 12 hours and in almost all cases within 24 hours. The patients became more cheerful and aware of feeling much better. […] This latter patient sufferred from depression and sexual frigidity; however, in this instance there was no anhedonia regression and some erotic pulsations did occur. […] The greatest hormonal responses coincided with the most evident clinical improvement. In a control study, five patients with established depression were treated with an injection of only the vehicle for the above noted LH-RH dosage.

[2] = tested on: patients with endogenous depression; conditions: given in randomized order on days 1, 3 and 5; Lancet 1974; cited from earlier work

| Structure (SMILES) | sleep, appetite and disposition for work ([1]; 21 patients, 300 mcg once a month) | time to relief from depression (almost all cases) ([1]; 21 patients, 300 mcg once a month, in almost all cases) [h] | libido response ([1]; 21 patients, 300 mcg once a month, most noticeable in female patients) | time to relief from depression (usually) ([1]; 21 patients, 300 mcg once a month, usually observed) [h] | onset of response after administration ([1]; 21 patients, 300 mcg single or divided dose once a month, hydrochloride salt) | time until symptoms of depression disappear ([1]; 100-800 mcg LH-RH or acid addition salt, moderately to severely depressed patient, usually) [h] | results in stress induced (reactive) depression ([1]; dosages 100-800 mcg, patients suffering from stress induced depression) | hormonal responses: serum levels of luteinizing hormone, follicular stimulating hormone, prolactin and thyrotrophin releasing hormone ([1]; monitored during treatment, greatest responses coincided with most evident clinical improvement) | patients not responding ([1]; of 21 patients, 300 mcg once a month) | gonadotropin response in younger patients (growth of penis, development of scrota) ([1]; younger patients, measured at 30 and 60 days after beginning of treatment) | clinical importance in the treatment of endogenous depression [2] |
| --- | --- | --- | --- | --- | --- | --- | --- | --- | --- | --- | --- |
| CC(C)C[C@H](NC(=O)CNC(=O)[C@H](Cc1ccc(O)cc1)NC(=O)[C@H](CO)NC(=O)[C@H](Cc1c[nH]c2ccccc12)NC(=O)[C@H](Cc1c[nH]cn1)NC(=O)[C@@H]1CCC(=O)N1)C(=O)N[C@@H](CCCNC(=N)N)C(=O)N1CCC[C@H]1C(=O)NCC(N)=O [LH-RH, (pyro)-Glu-His-Trp-Ser-Tyr-Gly-Leu-Arg-Pro-Gly-NH2] | Sleep and appetite were regularized as well as disposition for work | ≤ 24 | An improvement in libido response occurred frequently | ≤ 12 | response was immediate | ≤ 24 | Especially effective and favorable results | increases in the serum levels | Only one patient did not respond | there was a gonadotropin response | of no clinical importance |
| NC(=O)[C@@H]1CCCN1C(=O)[C@H](Cc1cnc[nH]1)NC(=O)[C@@H]1CCC(=O)N1 [thyrotropin releasing hormone] | – | – | – | – | – | – | – | – | – | – | of no clinical importance |
